For orientation: IC50 means the concentration needed to halve the response being measured. High values mean weaker potency, low ones greater potency.

SMILES strings stand for the structures.

Assay [1] has as its target human (hAC) acid ceramidase (Homo sapiens (Human), UniProt Q13510). Description: fluorescent-based in vitro assay on human acid ceramidase. The format is biochemical. The note with it: hAC-enriched lysosomal lysate from HEK293 cells; fluorogenic probe 5 μM; pH 4.5. The source says:
To evaluate the potency of the compounds towards acid ceramidase, a fluorescence-based in vitro assay previously described in literature (Bedia C et al., ChemBioChem, 2007, 8, 642-648) was implemented and optimized. This assay is based on a “fluorogenic probe” containing a coumarin group and a sphingoid base moiety (see figure below), which is not fluorescent in itself, but upon enzymatic cleavage by acid ceramidase followed by a chemical transformation liberates the fluorescent molecule umbelliferone (7-hydroxychromen-2-one). By quantifying the generation of umbelliferone using a fluorescence plate-reader, the level of enzymatic activity can be measured, whereby IC50 values of compounds that inhibit this activity can be generated.
Lysosomal lysate, enriched with acid ceramidase, was prepared from a cell line stably expressing human acid ceramidase. In the assay, the fluorogenic probe (or substrate) serves as a ceramide-analogue, which is recognized and hydrolyzed at the amide bond by acid ceramidase from the enriched lysate to yield the fatty acid and coumarinic aminodiol. By treating the solution with sodium periodate (NaIO4), the coumarinic aminodiol is subsequently oxidized into an aldehyde intermediate, which undergoes a β-elimination reaction to release the strongly fluorescent umbelliferone.
A lysosomal human acid ceramidase protein preparation was obtained from HEK293 cells stably expressing acid ceramidase suspended in 20 mM Tris HCl (pH 7.5) with 0.32 M sucrose. The cell solution was sonicated and centrifuged at 800×g for 15 min at 4° C. Supernatants were then centrifuged at 12,000×g for 30 min at 4° C. Pellets were re-suspended in PBS pH 7.4 and subjected to two freeze-thaw cycles at −80° C. The suspension was finally centrifuged at 105,000×g for 1 hour at 4° C. and protein concentration was measured in the supernatant with bicinchinonic-acid based protein assay. This human acid ceramidase-enriched preparation allowed us to further optimize the enzymatic assay and to use smaller amounts of lysate (2 μg/well) and substrate (5 μM).
The assay was performed in Optiplate 96-wells black plates, with each reaction well containing a mixture of 25 mM sodium acetate buffer pH 4.5 and a fixed amount of protein (2 μg) in a volume of 85 μL. After 30 mins of pre-incubation with test compounds (diluted 20× from DMSO stock solutions at different concentrations), the fluorogenic probe was added (diluted 20× from EtOH stock solution, final concentration 5 μM). After incubation for 3 hours at 37° C., the reactions were stopped with 50 μL of methanol and 100 μL of a 2.5 mg/mL NalO4 fresh solution in 100 mM Glycine/NaOH pH 10.6. The plate was incubated at 37° C. for 2 hours in the dark and fluorescence intensities were measured at excitation/emission wavelengths of 360/446 nm. Negative control samples consisted of the same incubation mixture in the absence of protein extracts. The IC50 values or percent of inhibition, at the indicated concentration, of selected compounds described in the invention are reported in Table 2.

Assay [2] deals with AC (Homo sapiens (Human), UniProt Q13510). The assay can be described thus: AC activity in A375 human melanoma cells. Format: cell-based. The conditions noted are these: 25 μM, evident at 30 minutes, lasted up to 3 hours. The protocol: Specifically, FIG. 1 evidences the effects of compound of Example 7 or vehicle (0.1% DMSO in DMEM) on AC activity and ceramide levels in A375 (left panel) or MeWo (right panel) human melanoma cell lines. (A-B) Intact cells were treated with compound of Example 7 (25 μM) or vehicle and AC activity was measured 30 minutes or 3 hours later in cell lysates. (B) Intact cells were exposed to compound of Example 7 (25 μM) for 2 hours or 24 hours and medium chain ceramides (C-D), long chain ceramides (E-F) and dihydroceramides (G-H) were quantified. Results are expressed as mean±s.e.m. (n=3). *p<0.05, **p<0.01, ***p<0.001 vs vehicle, two-way ANOVA followed by Dunnet.
(§1) hAC protein preparation (10 μg) was preincubated with inhibitors (final DMSO concentration 1%) in assay buffer (100 mM sodium phosphate, 0.1% Nonidet P-40, 150 mM NaCl, 3 mM DTT, 100 mM sodium citrate, pH 4.5) for 30 min at 37° C. Reactions were started by the addition of 50 μM N-lauroyl ceramide (Nu-Chek Prep, Elysian, Minn.) and carried on for 30 min at 37° C. […] The organic phases were collected, dried under nitrogen and analyzed by UPLC/MS (Acquity, Waters). […]
(§2) The [M−H]^− ion was monitored in the selected-ion monitoring mode (m/z values: lauric acid 199, 11-lauroleic acid 197.35). […] Inhibition of AC activity was calculated as reduction of lauric acid in the samples compared to vehicle controls. […]

In assay [3] the target is AC (Mus musculus (Mouse), UniProt Q9WV54). Description: AC activity in RAW264.7 murine cell line. The format is cell-based. The conditions noted are these: Raw264.7 cells; 0.1-20 μM; 3 hours. The protocol: Specifically it is reported the concentration response of compound of Example 25 or vehicle (0.1% DMSO in DMEM) on AC activity and ceramide levels in RAW264.7 murine cell line. (A) Intact cells were treated with compound of Example 25 (0.1-20 μM) or vehicle and AC activity was measured 3 hours later in cell lysates. (B-E) Intact cells were exposed to compound of Example 25 (0.1-20 μM) for 3 hours and sphingosine/sphinganine (B), dihydroceramides (C), medium chain ceramides (D), long chain ceramides (E) were quantified. Results are expressed as mean±s.e.m. (n=3). *p<0.05, **p<0.01, ***p<0.001 vs vehicle, two-way ANOVA followed by Dunnet.
as §1, §2

A further assay concerns the target caspase-3 (h) (Homo sapiens (Human), UniProt P42574). The assay can be described thus: Cerep enzyme inhibition screen: caspase-3. Format: biochemical. The note with it: mean of two determinations, read-out: Inhibitory activity (% Inh. at 10 μM), mean. The text has this:
Compound of Example 25 falling in both Formula (I) and (Ia) was selected to be tested for off-target effects on a set of enzymes that include proteases (aspartic, cysteine, and serine), cyclooxygenases as well as lipoxygenases and group IV phospholipase (sPLA2) (Table 3). [table]

AC (Homo sapiens (Human), UniProt Q13510), sequence (Q13510 22-142): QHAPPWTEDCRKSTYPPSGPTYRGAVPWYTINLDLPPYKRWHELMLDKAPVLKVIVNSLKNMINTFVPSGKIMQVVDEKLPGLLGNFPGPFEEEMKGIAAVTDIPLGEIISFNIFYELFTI
AC (Homo sapiens (Human), UniProt Q13510), sequence (Q13510 143-395): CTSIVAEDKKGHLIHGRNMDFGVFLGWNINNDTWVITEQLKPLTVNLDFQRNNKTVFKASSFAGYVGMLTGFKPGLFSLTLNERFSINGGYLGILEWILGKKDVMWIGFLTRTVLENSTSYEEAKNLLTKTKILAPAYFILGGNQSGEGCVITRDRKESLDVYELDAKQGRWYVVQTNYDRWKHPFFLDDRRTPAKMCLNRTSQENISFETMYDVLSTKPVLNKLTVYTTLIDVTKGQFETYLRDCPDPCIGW
human (hAC) acid ceramidase, sequence (Q13510 22-142): as the sequence (Q13510 22-142) above
human (hAC) acid ceramidase, sequence (Q13510 143-395): as the sequence (Q13510 143-395) above
AC (Mus musculus (Mouse), UniProt Q9WV54), sequence (Q9WV54 19-141): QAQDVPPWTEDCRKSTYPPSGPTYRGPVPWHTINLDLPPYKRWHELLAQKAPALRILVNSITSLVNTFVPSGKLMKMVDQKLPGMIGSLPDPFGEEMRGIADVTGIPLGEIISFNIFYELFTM
AC (Mus musculus (Mouse), UniProt Q9WV54), sequence (Q9WV54 142-394): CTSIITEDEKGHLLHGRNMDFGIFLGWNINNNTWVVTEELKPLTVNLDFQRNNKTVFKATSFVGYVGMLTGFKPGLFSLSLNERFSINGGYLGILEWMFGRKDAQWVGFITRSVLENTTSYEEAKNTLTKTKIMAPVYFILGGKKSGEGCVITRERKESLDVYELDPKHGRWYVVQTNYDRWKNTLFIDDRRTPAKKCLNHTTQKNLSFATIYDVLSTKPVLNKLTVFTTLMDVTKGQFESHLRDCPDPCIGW
caspase-3 (h), sequence (P42574 29-175): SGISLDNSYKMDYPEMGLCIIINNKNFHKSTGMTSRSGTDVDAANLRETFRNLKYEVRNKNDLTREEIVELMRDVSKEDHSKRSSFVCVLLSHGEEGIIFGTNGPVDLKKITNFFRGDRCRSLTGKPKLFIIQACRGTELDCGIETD
caspase-3 (h), sequence (P42574 176-277): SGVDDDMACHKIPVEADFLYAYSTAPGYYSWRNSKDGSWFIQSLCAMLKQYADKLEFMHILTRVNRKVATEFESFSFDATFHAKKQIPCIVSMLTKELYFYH

`O=C(NCCCCc1ccccc1)n1c(=O)oc2cc(Br)ccc21` [Example 7, 6-Bromo-2-oxo-N-(4-phenylbutyl)-1,3-benzoxazole-3-carboxamide] returned an IC50 in assay [1] of 33 ± 9 nM. Also, the AC activity result at AC [2] is reported as “reduction in AC activity”.
Take `O=C(NCCCCc1ccccc1)n1c(=O)oc2cc(-c3ccc(F)cc3)ccc21` [Example 25, 6-(4-Fluorophenyl)-2-oxo-N-(4-phenylbutyl)-1,3-benzoxazole-3-carboxamide]: at AC [3], the AC activity result is recorded as “concentration dependent reduction in AC activity”. For the same compound, the inhibition at 10 µM on caspase-3 (h) stood at 1.9%.

The values above are taken from patent publication US10226452B2, “Benzoxazolone derivatives as acid ceramidase inhibitors, and their use as medicaments” (FONDAZIONE ISTITUTO ITALIANO DI TECNOLOGIA, priority 2014, dated 2019).
